Measured values from patent publication EP2966448B1, “METHOD FOR THE PREDICTION OR PROGNOSIS OF THE RESPONSE OF A HUMAN SUBJECT SUFFERING FROM CANCER TO TREATMENT WITH AN ANTAGONIST OF THE NK1 RECEPTOR” (priority 2013, dated 2014).
Read-outs that look alike come from different tables or passages of the source.

Columns and labels:
[1] = system: Thyroid carcinoma (papillary type); assay: Inhibition of primary tumor cell cultures (48 hours) vs NK1 receptor immunostaining (Example 1); format: cell-based; settings: Homo sapiens, 1 micromolar, read-out: Percentage of inhibition of cell cultures
Protocol: (§1) Cell cultures. To obtain tumor cells from human primary tumors we used the method described in De Bari et al. (De Bari et al. 2001). Briefly, small pieces of the tumors were digested into a hyaluronidase solution (Sigma-Aldrich, USA) at a concentration of 1 mg/ml during 15 minutes at 37°C, and then they were treated with 6 mg/ml of collagenase type IV (Invitrogen) during 2 hours at 37°C. Consecutively, cells were washed, and resuspended in the DMEM culture medium with high concentration of glucose (Dulbecco's Modified Eagle's Medium, Invitrogen) supplemented with 1% of antibiotics-antimycotics (Invitrogen) and with 1% of sodium pyruvate (Invitrogen), and the cells were seeded in culture slides at a concentration of 10.000 cells per square centimeter. When cells reached confluence, the adherent cells were separated using sterile trypsin at 0,5% (Invitrogen) and they were used among passages 3 and 9. For the assays shown next, tumor cells were seeded on slides at a concentration of 25.000 cells per well. A total of 6 wells containing the tumor cells were used as survival control. […] All the cultures were kept during 48 hours and later on recollected for their analysis.
(§2) Immunohistochemistry techniques. The presence of NK1 receptors was also analyzed using immunohistochemistry techniques. Briefly, a sample of each of the cultures of the cell lines used in the present invention, was centrifuged (5 minutes at 1.500 rpm) and the pellet obtained was dehydrated using increasing concentrations of ethanol and, finally, xylol. Then, said dehydrated samples were embedded in paraffin, creating a block of cells. Such paraffin blocks were cut with a microtome at 5 microns thickness, and were placed on microscope slides adequate to perform immunohistochemistry techniques. Consecutively, they were de-paraffinized by immersing them in xylol, to be finally hydrated using a solution containing decreasing concentrations of ethanol, and finally submerged them into water. […] After this, the samples were left to cool down at room temperature for 10 minutes. The endogenous peroxidase activity was blocked with 3% peroxide of hydrogen for 30 minutes at room temperature. After washing the samples with 0.05 M of Tris buffer, they were incubated with 10% non-immune pork serum at for 30 minutes at room temperature. To analyze the expression of NK1 receptors, the cellular samples were incubated in the presence of anti-NK1 antibodies (S8305, Sigma-Aldrich) diluted 1:1000, overnight at 4°C. Afterwards, the samples were washed in Tris buffer 0.05 M at room temperature. The next step was the addition of Envision System-HRP (Dako) reagents for 30 minutes at room temperature. Then, the samples were washed again in Tris buffer 0.05 M and the immunoreactivity was visualized through light microscopy with a chromogenic solution containing 3,3'-Diaminobenzidine (DAB+; Dako, USA). To differentiate the cell nuclei, they were slightly stained with hematoxylin. As negative control, it was used samples not incubated with the primary antibody anti-NK1, which was replaced by non-immune serum. All the samples were evaluated.
(§3) To value the immunostaining in each of the cases six cuts were performed to be analyzed by the immunohistochemistry technique. In each of the six cuts, it was counted cells in 20 fields (magnification 400x) using an Olympus microscope (model CX31). In each field it was counted the total number of cells and the number of cells presenting immunostaining, calculating afterwards the percentage of cells which presented immunostaining.

Leukemia B = assay: as above; format: cell-based; settings: Homo sapiens, 1 micromolar, read-out: Percentage of inhibition of cell cultures
Protocol: as §1, §2, §3

[2] = system: Urinary bladder carcinoma (transitional cell carcinoma); assay: Inhibition of primary tumor cell cultures vs Kras mutation (Example 2); format: cell-based, human; settings: Homo sapiens, 100 micromolar, read-out: Percentage of inhibition of cell cultures
Protocol: To obtain tumor cells from human primary tumors we used the method described in De Bari et al. (De Bari et al. 2001). Briefly, small pieces of the tumors were digested into a hyaluronidase solution (Sigma-Aldrich, USA) at a concentration of 1 mg/ml during 15 minutes at 37°C, and then they were treated with 6 mg/ml of collagenase type IV (Invitrogen) during 2 hours at 37°C. Consecutively, cells were washed, and resuspended in the DMEM culture medium with high concentration of glucose (Dulbecco's Modified Eagle's Medium, Invitrogen) supplemented with 1% of antibiotics-antimycotics (Invitrogen) and with 1% of sodium pyruvate (Invitrogen), and the cells were seeded in culture slides at a concentration of 10.000 cells per square centimeter. When cells reached confluence, the adherent cells were separated using sterile trypsin at 0,5% (Invitrogen) and they were used among passages 3 and 9. For the assays shown next, tumor cells were seeded on slides at a concentration of 25.000 cells per well. A total of 6 wells containing the tumor cells were used as survival control. […] All the cultures were kept during 48 hours and later on recollected for their analysis.
(§4) In each case the presence or not of mutations in K-ras gene was determined.
(§5) To determine the existence of mutations in the K-ras gene DNA from cancer tumor cells was extracted from samples obtained from the different cancer tumor cells, using DNA extraction kits from Takara (Madison, WI, US) or Ambion (Huntingdon, Cambridgeshire, United Kingdom), following the manufacturer's instructions, and as it has been previously published (Di Fiore F, et al. 2007). Consecutively it was analyzed by sequencing the exon 2 of the KRAS gene, , by means of PCR amplification from previously extracted cancer tumor DNA, using the following sense primer (SEQ ID NO. 15): 5'-[sequence]-3' and anti-sense primer (SEQ ID NO. 16): 5'-[sequence]-3'. After the purification using the Qiagen extraction kit, the PCR products were sequenced using the Big Dye Terminator Kit V3.1 (Applied Biosystems, Foster City, CA, U.S.) and an ABI Prism 377 or 3100 DNA sequencer (Applied Biosystems). The presence of a heterozygous mutation in the KRAS gene in cancer tumor cells of the cultures was defined as the appearance of a mutant peak of a height of at least a third of the wild type. All the sequence analysis were executed at least twice in two independent PCR.
(§6) The antibody against NK1 receptor (Table 16) was used at 1/50 concentration. The percentages of inhibition are expressed in percentage of variation in relation to control ± standard deviation.

[3] = system: Non Hodgkin Lymphoma B (diffuse B cell lymphoma); assay: as above; format: cell-based, human; settings: Homo sapiens, B-cell, 100 micromolar, read-out: Percentage of inhibition of cell cultures
Protocol: as §1, §4, §5
(§7) The percentages of inhibition are expressed in percentage of variation in relation to control ± standard deviation.

Burkitt Lymphoma = assay: Inhibition of primary tumor cell cultures (48 hours) vs NK1 receptor immunostaining (Example 1); format: cell-based; settings: Homo sapiens, 1 micromolar, read-out: Percentage of inhibition of cell cultures
Protocol: as §1, §2, §3

Endometrium carcinoma = assay: Inhibition of primary tumor cell cultures vs Kras mutation (Example 2); format: cell-based, human; settings: Homo sapiens, 100 micromolar, read-out: Percentage of inhibition of cell cultures
Protocol: (§8) Cell cultures. […] Briefly, small pieces of the tumors were digested into a hyaluronidase solution (Sigma-Aldrich, USA) at a concentration of 1 mg/ml during 15 minutes at 37°C, and then they were treated with 6 mg/ml of collagenase type IV (Invitrogen) during 2 hours at 37°C. Consecutively, cells were washed, and resuspended in the DMEM culture medium with high concentration of glucose (Dulbecco's Modified Eagle's Medium, Invitrogen) supplemented with 1% of antibiotics-antimycotics (Invitrogen) and with 1% of sodium pyruvate (Invitrogen), and the cells were seeded in culture slides at a concentration of 10.000 cells per square centimeter. When cells reached confluence, the adherent cells were separated using sterile trypsin at 0,5% (Invitrogen) and they were used among passages 3 and 9. For the assays shown next, tumor cells were seeded on slides at a concentration of 25.000 cells per well. A total of 6 wells containing the tumor cells were used as survival control. […] All the cultures were kept during 48 hours and later on recollected for their analysis.
as §4, §5, §6

[4] = system: Lung carcinoma (small cell type); assay: Inhibition of primary tumor cell cultures (48 hours) vs NK1 receptor immunostaining (Example 1); format: cell-based; settings: Homo sapiens, 1 micromolar, read-out: Percentage of inhibition of cell cultures
Protocol: as §1, §2, §3

[5] = system: Thyroid carcinoma (folliculary type); assay: as above; format: cell-based; settings: Homo sapiens, 1 micromolar, read-out: Percentage of inhibition of cell cultures
Protocol: as §1, §2, §3

[6] = system: Colon carcinoma (Adenocarcinoma); assay: Inhibition of primary tumor cell cultures vs Kras mutation (Example 2); format: cell-based, human; settings: Homo sapiens, 100 micromolar, read-out: Percentage of inhibition of cell cultures
Protocol: as §1, §4, §5, §6

[7] = system: Malignant Fibrous Histiocytoma; assay: Inhibition of primary tumor cell cultures (48 hours) vs NK1 receptor immunostaining (Example 1); format: cell-based; settings: Homo sapiens, 1 micromolar, read-out: Percentage of inhibition of cell cultures
Protocol: as §1, §2, §3

[8] = system: Lung carcinoma (non small cell type); assay: as above; format: cell-based; settings: Homo sapiens, 1 micromolar, read-out: Percentage of inhibition of cell cultures
Protocol: as §1, §2, §3

[9] = system: Non Hodgkin Lymphoma T (diffuse T cell lymphoma); assay: Inhibition of primary tumor cell cultures vs Kras mutation (Example 2); format: cell-based, human; settings: Homo sapiens, T-cell, 100 micromolar, read-out: Percentage of inhibition of cell cultures
Protocol: as §1, §4, §5, §7

[10] = system: Breast carcinoma (ductal adenocarcinoma); assay: as above; format: cell-based, human; settings: Homo sapiens, 100 micromolar, read-out: Percentage of inhibition of cell cultures
Protocol: as §8, §4, §5, §6

[11] = system: Pancreatic carcinoma (Adenocarcinoma); assay: as above; format: cell-based, human; settings: Homo sapiens, 100 micromolar, read-out: Percentage of inhibition of cell cultures
Protocol: as §8, §4, §5, §6

[12] = system: human primary tumor cells; assay: Inhibition of primary tumor cell cultures vs low or high expression of the truncated form of NK1 receptor (Example 5; tumor type per table line); format: cell-based; settings: Glioma (astrocytoma), 100 micromolar
Protocol: as §1
The presence of the truncated form of NK1 receptor was determined and then cells were cultured in presence of several antagonists of the NK1 receptor.
In each case the presence of the truncated form of the NK1 receptor was determined.
To determine the presence of the truncated form of the gene of NK1 receptor PCR technique was performed (Polymerase Chain Reaction). The extraction of RNA, amplifications of PCR, cycle conditions and quantitative analysis were executed as it has been previously described. The specific primers were the following: For the full-length NK1R receptor (NM_001058.3; forward (SEQ ID NO: 17)-: 5'-[sequence]-3 ' and reverse- (SEQ ID NO:18): 5'-[sequence]-3') and for the truncated NK1receptor (NM_015727.2; forward (SEQ ID NO: 19): 5'-[sequence]-3 and reverse (SEQ ID NO;20): 5'-[sequence]-3').
Cases were distributed in two groups: • Group A -low expression of the truncated form of NK1 receptor- for those cases wherein the expression of the truncated form of NK1 receptor was less than double the expression of the full length form of such receptor. • Group B -high expression of the truncated form of NK1 receptor- for those cases wherein the expression of the truncated form of the NK1 receptor was higher than double the expression of the full length form of such receptor.
The percentages of inhibition are expressed in percentage of variation in relation to the control ± standard deviation.

[13] = NK1 receptor immunostaining Group 1 (less than 20% of the cells)
[14] = NK1 receptor immunostaining Group 2 (20-80% of the cells)
[15] = NK1 receptor immunostaining Group 3 (more than 80% of the cells)
[16] = NK1 receptor immunostaining Intensity grade 1
[17] = NK1 receptor immunostaining Intensity grade 2
[18] = NK1 receptor immunostaining Intensity grade 3
[19] = Cases with Kras non-mutated (wild type)

## CC(=O)N1CCN([C@H]2CCN(C(=O)N(C)[C@H](C)c3cc(C(F)(F)F)cc(C(F)(F)F)c3)[C@@H](c3ccc(F)cc3C)C2)CC1 [Casopitant]
[1]; [13]
  inhibition at 1 µM: 16 ± 2%
[1]; [14]
  inhibition at 1 µM: 44 ± 2%
[1]; [15]
  inhibition at 1 µM: 95 ± 5%
[1]; [16]
  inhibition at 1 µM: 35 ± 4%
[1]; [17]
  inhibition at 1 µM: 55 ± 6%
[1]; [18]
  inhibition at 1 µM: 92 ± 3%
Leukemia B; [13]
  inhibition at 1 µM: 17 ± 3%
Leukemia B; [14]
  inhibition at 1 µM: 46 ± 5%
Leukemia B; [15]
  inhibition at 1 µM: 94 ± 6%
Leukemia B; [16]
  inhibition at 1 µM: 36 ± 3%
Leukemia B; [17]
  inhibition at 1 µM: 52 ± 3%
Leukemia B; [18]
  inhibition at 1 µM: 92 ± 5%
[2]; Cases with Kras mutated
  inhibition at 100 µM: 25 ± 4%
[2]; [19]
  inhibition at 100 µM: 95 ± 6%
[3]; Cases with Kras mutated
  inhibition at 100 µM: 26 ± 3%
[3]; [19]
  inhibition at 100 µM: 95 ± 4%
Burkitt Lymphoma; [13]
  inhibition at 1 µM: 15 ± 3%
Burkitt Lymphoma; [14]
  inhibition at 1 µM: 46 ± 5%
Burkitt Lymphoma; [15]
  inhibition at 1 µM: 94 ± 5%
Burkitt Lymphoma; [16]
  inhibition at 1 µM: 37 ± 5%
Burkitt Lymphoma; [17]
  inhibition at 1 µM: 55 ± 3%
Burkitt Lymphoma; [18]
  inhibition at 1 µM: 93 ± 3%
Endometrium carcinoma; Cases with Kras mutated
  inhibition at 100 µM: 28 ± 2%
Endometrium carcinoma; [19]
  inhibition at 100 µM: 94 ± 4%
[4]; [13]
  inhibition at 1 µM: 12 ± 2%
[4]; [14]
  inhibition at 1 µM: 45 ± 2%
[4]; [15]
  inhibition at 1 µM: 93 ± 4%
[4]; [16]
  inhibition at 1 µM: 33 ± 2%
[4]; [17]
  inhibition at 1 µM: 55 ± 3%
[4]; [18]
  inhibition at 1 µM: 94 ± 4%
[5]; [13]
  inhibition at 1 µM: 14 ± 3%
[5]; [14]
  inhibition at 1 µM: 44 ± 3%
[5]; [15]
  inhibition at 1 µM: 94 ± 4%
[5]; [16]
  inhibition at 1 µM: 34 ± 3%
[5]; [17]
  inhibition at 1 µM: 54 ± 5%
[5]; [18]
  inhibition at 1 µM: 93 ± 2%
[6]; Cases with Kras mutated
  inhibition at 100 µM: 32 ± 4%
[6]; [19]
  inhibition at 100 µM: 94 ± 6%
[7]; [13]
  inhibition at 1 µM: 14 ± 3%
[7]; [14]
  inhibition at 1 µM: 46 ± 4%
[7]; [15]
  inhibition at 1 µM: 94 ± 5%
[7]; [16]
  inhibition at 1 µM: 32 ± 5%
[7]; [17]
  inhibition at 1 µM: 53 ± 4%
[7]; [18]
  inhibition at 1 µM: 93 ± 2%
[8]; [13]
  inhibition at 1 µM: 10 ± 2%
[8]; [14]
  inhibition at 1 µM: 46 ± 2%
[8]; [15]
  inhibition at 1 µM: 92 ± 5%
[8]; [16]
  inhibition at 1 µM: 32 ± 4%
[8]; [17]
  inhibition at 1 µM: 54 ± 4%
[8]; [18]
  inhibition at 1 µM: 93 ± 3%
[9]; Cases with Kras mutated
  inhibition at 100 µM: 26 ± 4%
[9]; [19]
  inhibition at 100 µM: 96 ± 5%
[10]; Cases with Kras mutated
  inhibition at 100 µM: 28 ± 6%
[10]; [19]
  inhibition at 100 µM: 96 ± 4%
[11]; Cases with Kras mutated
  inhibition at 100 µM: 27 ± 3%
[11]; [19]
  inhibition at 100 µM: 93 ± 4%
[12]; Cases with high expression of the truncated form of NK1 receptor (Group B)
  Percentage of inhibition of cell cultures: 95±7 percentage
[12]; Cases with low expression of the truncated form of NK1 receptor (Group A)
  Percentage of inhibition of cell cultures: 24±5 percentage
